# From US11324728B2, “Dosing regimens for the treatment of fungal infections” (Seren Pharmaceuticals Inc., priority 2017, dated 2022)
# “And” between values parts separate entries of the source, which are not always exact repeats. Identical values can stand only once.
# How the values were obtained:
# Format in all cases: in vivo
# Details in all cases: Week 48
# [1] = tested on: Trichophyton rubrum; assay: Overall clinical evaluation by identified species
# Method: (§1) A Phase II clinical pharmacology study was conducted in subjects with onychomycosis of the toenail. The study investigated the pharmacokinetics, efficacy and safety of three different dosing regimens of fosravuconazole. […] The three treatment groups were as follows: • a.
# [2] = tested on: Trichophyton mentagrophytes; assay: Overall clinical evaluation by identified species
# Method: as §1
# [3] = tested on: Trichophyton rubrum; assay: Identification of dermatophytes by PCR method: disappearance rate
# Description: The efficacy endpoints were: (1) overall clinical efficacy; (2) changes over time in efficacy; (3) confirmation of elements of dermatophytes by direct microscopy; and (4) results of identification of dermatophytes by the polymerase chain reaction (PCR) method.
compound,measurement,setting,value
"C[C@@H](c1nc(-c2ccc(C#N)cc2)cs1)[C@@](Cn1cncn1)(OCOP(=O)(O)O)c1ccc(F)cc1F [fosravuconazole, 4-[2-[(1R,2R)-2-(2,4-difluorophenyl)-1-methyl-2-[(phosphonooxy)methoxy]-3-(1H-1,2,4-triazol-1-yl)propyl]-4-thiazolyl]benzo-nitrile]",Cure rate and 95% CI,[1]; 100 mg,47.6 %
same,Cured,[1]; 100 mg,10
same,Failed,[1]; 100 mg,0
same,Improved,[1]; 100 mg,1
same,Markedly improved,[1]; 100 mg,10
same,Slightly improved,[1]; 100 mg,0
same,Cure rate and 95% CI,[1]; 200 mg,31.6 %
same,Cured,[1]; 200 mg,6
same,Failed,[1]; 200 mg,0
same,Improved,[1]; 200 mg,2
same,Markedly improved,[1]; 200 mg,11
same,Slightly improved,[1]; 200 mg,0
same,Cure rate and 95% CI,[1]; 400 mg,44.0 %
same,Cured,[1]; 400 mg,11
same,Failed,[1]; 400 mg,0
same,Improved,[1]; 400 mg,4
same,Markedly improved,[1]; 400 mg,10
same,Slightly improved,[1]; 400 mg,0
same,Cure rate and 95% CI,[2]; 100 mg,0.0 %
same,Cured,[2]; 100 mg,0
same,Failed,[2]; 100 mg,0
same,Improved,[2]; 100 mg,0
same,Markedly improved,[2]; 100 mg,4
same,Slightly improved,[2]; 100 mg,0
same,Cure rate and 95% CI,[2]; 200 mg,0.0 %
same,Cured,[2]; 200 mg,0
same,Failed,[2]; 200 mg,0
same,Improved,[2]; 200 mg,2
same,Markedly improved,[2]; 200 mg,0
same,Slightly improved,[2]; 200 mg,0
same,Cure rate and 95% CI,[2]; 400 mg,0.0 %
same,Cured,[2]; 400 mg,0
same,Failed,[2]; 400 mg,0
same,Improved,[2]; 400 mg,0
same,Markedly improved,[2]; 400 mg,2
same,Slightly improved,[2]; 400 mg,0
same,Disappearance rate of Trichophyton rubrum,[3]; 100 mg (once daily dose) group,57.1%
same,Disappearance rate of Trichophyton rubrum,[3]; 200 mg (pulse treatment) group,36.8%
same,Disappearance rate of Trichophyton rubrum,[3]; 400 mg (pulse treatment) group,52.1% and 52.0%
